# From patent publication US9179694B2, “Method and composition for enhancing milk production and milk component concentrations” (PURINA ANIMAL NUTRITION LLC, priority 2003, dated 2015)
# Test: Dry matter feed intake in sorbitol feeding trials
# Assay type: in vivo, Holstein cows
# Details: for increase in dry matter feed intake: Pre-Partum Trial #1 (75 g/day wk −3..−1 only) versus Control Trial #1
# Protocol: To determine the dry matter weight (or dry matter basis or dry basis) of a particular sample, the sample is first weighed. The weighed sample is then dried in an oven at a temperature that is adequate to drive off moisture from the sample without degrading the sample components, such as a temperature ranging from about 100° C. to about 110° C. The oven drying is continued until the weight of the dried sample remains constant, despite additional oven drying. During the pre-partum period, for all cows utilized in Example One or Example Two, the pre-partum control feed, as modified to include any sorbitol indicated above for the different trials, was placed in the feeding troughs of the different cows participating in the different trials once daily in the morning. Thereafter, these different pre-partum feeds (the pre-partum control feed, including any incorporated sorbitol dosage of a particular trial during the pre-partum period) of the different trials were lightly stirred, separately and individually, in front of the cows of the different trials three times per day during the pre-partum period to encourage additional feed ingestion by the cows. Leftover rations from the previous day's feeding were collected and weighed from each feeding trough during the pre-partum period, prior to feeding the test cows on a subsequent day. The cows of the different trials received a sufficient amount of the pre-partum to ensure at least about ten weight percent of the pre-partum feeds of the different trials remained in the feeding troughs of each trial each day of the pre-partum period, based on the amount of the different pre-partum feeds of the different trials provided at the beginning of each day. Feed refusals were measured daily during the pre-partum period, and water was supplied ad libitum. During the early post-partum period, for all cows utilized in Example One or Example Two, the first post-partum control feed, as modified to include any sorbitol indicated above for the different trials, was placed in the feeding troughs of the different cows participating in the different trials once daily in the morning. Thereafter, these first post-partum feeds (the first post-partum control feed, including any incorporated sorbitol dosage of a particular trial during the early post-partum period) of the different trials were lightly stirred, separately and individually, in front of the cows of the different trials three times per day during the early post-partum period to encourage additional feed ingestion by the cows. Leftover rations from the previous day's feeding were collected and weighed from each feeding trough during the early post-partum period, prior to feeding the test cows on a subsequent day. The cows of the different trials received a sufficient amount of the first post-partum feed to ensure at least about ten weight percent of the first post-partum feeds of the different trials remained in the feeding troughs of each trial each day of the early post-partum period, based on the amount of the different first post-partum feeds of the different trials provided at the beginning of each day. Feed refusals were measured daily during the early post-partum period, and water was supplied ad libitum. […] Thereafter, the second post-partum control feed were lightly stirred, separately and individually, in front of the cows of the different trials three times per day during the weeks +5 through +8 to encourage additional feed ingestion by the cows. Leftover rations from the previous day's feeding were collected and weighed from each feeding trough during weeks +5 through +8, prior to feeding the test cows on a subsequent day. […]
smiles,measurement,setting,value
OC[C@@H](O)[C@@H](O)[C@H](O)[C@@H](O)CO [sorbitol],Dry Matter Feed Intake,"Pre-Partum Trial #1 (75/0/0 g/day in wk −3..−1/+1..+4/+5..+8), multiparious cows, weeks +1 through +8",44.5 lbs/day
same,Dry Matter Feed Intake,"Pre-Partum Trial #1 (75/0/0 g/day in wk −3..−1/+1..+4/+5..+8), multiparious cows, weeks −3 through −1",29.9 lbs/day
same,Dry Matter Feed Intake,"Pre-Partum Trial #1 (75/0/0 g/day in wk −3..−1/+1..+4/+5..+8), primiparious cows, weeks +1 through +8",34.2 lbs/day
same,Dry Matter Feed Intake,"Pre-Partum Trial #1 (75/0/0 g/day in wk −3..−1/+1..+4/+5..+8), primiparious cows, weeks −3 through −1",17.8 lbs/day
same,increase in dry matter feed intake,"multiparious cows, weeks +1 through +8",+9.6%
same,increase in dry matter feed intake,"primiparious cows, weeks +1 through +8",+7.9%
same,Dry Matter Intake,"Pre-Partum Trial #2 (75/0/100 g/day in wk −3..−1/+1..+4/+5..+8), multiparious cows, week +1",32.7 lbs/day
same,Change in Dry Matter Feed Intake,"Pre-Partum Trial #2 (75/0/100 g/day in wk −3..−1/+1..+4/+5..+8), multiparious cows, week +1 versus −1",1.97 lbs/day
same,Dry Matter Intake,"Pre-Partum Trial #2 (75/0/100 g/day in wk −3..−1/+1..+4/+5..+8), multiparious cows, week +2",42.5 lbs/day
same,Dry Matter Intake,"Pre-Partum Trial #2 (75/0/100 g/day in wk −3..−1/+1..+4/+5..+8), multiparious cows, week +3",46.2 lbs/day
same,Dry Matter Intake,"Pre-Partum Trial #2 (75/0/100 g/day in wk −3..−1/+1..+4/+5..+8), multiparious cows, week +4",50.1 lbs/day
same,Dry Matter Intake,"Pre-Partum Trial #2 (75/0/100 g/day in wk −3..−1/+1..+4/+5..+8), multiparious cows, week +5",52.4 lbs/day
same,Dry Matter Intake,"Pre-Partum Trial #2 (75/0/100 g/day in wk −3..−1/+1..+4/+5..+8), multiparious cows, week +6",53.9 lbs/day
same,Dry Matter Intake,"Pre-Partum Trial #2 (75/0/100 g/day in wk −3..−1/+1..+4/+5..+8), multiparious cows, week +7",56.1 lbs/day
same,Dry Matter Intake,"Pre-Partum Trial #2 (75/0/100 g/day in wk −3..−1/+1..+4/+5..+8), multiparious cows, week +8",53.8 lbs/day
same,Dry Matter Intake,"Pre-Partum Trial #2 (75/0/100 g/day in wk −3..−1/+1..+4/+5..+8), multiparious cows, week −1",30.7 lbs/day
same,Dry Matter Intake,"Pre-Partum Trial #2 (75/0/100 g/day in wk −3..−1/+1..+4/+5..+8), multiparious cows, week −2",33.5 lbs/day
same,Change in Dry Matter Feed Intake,"Pre-Partum Trial #2 (75/0/100 g/day in wk −3..−1/+1..+4/+5..+8), multiparious cows, week −2 versus −1",−2.88 lbs/day
same,Dry Matter Intake,"Pre-Partum Trial #2 (75/0/100 g/day in wk −3..−1/+1..+4/+5..+8), multiparious cows, week −3",30.9 lbs/day
same,Dry Matter Intake,"Pre-Partum Trial #2 (75/0/100 g/day in wk −3..−1/+1..+4/+5..+8), multiparious cows, weeks +1 through +4",42.9 lbs/day
same,Dry Matter Intake,"Pre-Partum Trial #2 (75/0/100 g/day in wk −3..−1/+1..+4/+5..+8), multiparious cows, weeks +1 through +8",48.4 lbs/day
same,Dry Matter Intake,"Pre-Partum Trial #2 (75/0/100 g/day in wk −3..−1/+1..+4/+5..+8), multiparious cows, weeks +5 through +8",54.2 lbs/day
same,Dry Matter Intake,"Pre-Partum Trial #2 (75/0/100 g/day in wk −3..−1/+1..+4/+5..+8), multiparious cows, weeks −3 through −1",31.8 lbs/day
same,decrease in dry matter feed intake,"Pre-Partum Trial #2 (75 g/day pre-partum) versus Control Trial #2, multiparious cows, pre-partum period (weeks −3 through −1)",7.0%
same,Dry Matter Intake,"Pre/Post Trial #1 (150/125/100 g/day in wk −3..−1/+1..+4/+5..+8), multiparious cows, week +1",36.6 lbs/day
same,Dry Matter Feed Intake,"Pre/Post Trial #1 (150/125/100 g/day in wk −3..−1/+1..+4/+5..+8), multiparious cows, week +1, two-trial comparison with Control Trial #2 (Table 22)",36.7 lbs/day
same,Change in Dry Matter Feed Intake,"Pre/Post Trial #1 (150/125/100 g/day in wk −3..−1/+1..+4/+5..+8), multiparious cows, week +1 versus −1",3.37 lbs/day
same,Change in Dry Matter Feed Intake,"Pre/Post Trial #1 (150/125/100 g/day in wk −3..−1/+1..+4/+5..+8), multiparious cows, week +1 versus −1, two-trial comparison with Control Trial #2 (Table 22)",3.35 lbs/day
same,Dry Matter Intake,"Pre/Post Trial #1 (150/125/100 g/day in wk −3..−1/+1..+4/+5..+8), multiparious cows, week +2",45.3 lbs/day
same,Dry Matter Feed Intake,"Pre/Post Trial #1 (150/125/100 g/day in wk −3..−1/+1..+4/+5..+8), multiparious cows, week +2, two-trial comparison with Control Trial #2 (Table 22)",45.6 lbs/day
same,Dry Matter Intake,"Pre/Post Trial #1 (150/125/100 g/day in wk −3..−1/+1..+4/+5..+8), multiparious cows, week +3",48.5 lbs/day
same,Dry Matter Feed Intake,"Pre/Post Trial #1 (150/125/100 g/day in wk −3..−1/+1..+4/+5..+8), multiparious cows, week +3, two-trial comparison with Control Trial #2 (Table 22)",48.8 lbs/day
same,Dry Matter Intake,"Pre/Post Trial #1 (150/125/100 g/day in wk −3..−1/+1..+4/+5..+8), multiparious cows, week +4",51.2 lbs/day
same,Dry Matter Feed Intake,"Pre/Post Trial #1 (150/125/100 g/day in wk −3..−1/+1..+4/+5..+8), multiparious cows, week +4, two-trial comparison with Control Trial #2 (Table 22)",51.5 lbs/day
same,Dry Matter Intake,"Pre/Post Trial #1 (150/125/100 g/day in wk −3..−1/+1..+4/+5..+8), multiparious cows, week +5",53.9 lbs/day
same,Dry Matter Feed Intake,"Pre/Post Trial #1 (150/125/100 g/day in wk −3..−1/+1..+4/+5..+8), multiparious cows, week +5, two-trial comparison with Control Trial #2 (Table 22)",54.2 lbs/day
same,Dry Matter Intake,"Pre/Post Trial #1 (150/125/100 g/day in wk −3..−1/+1..+4/+5..+8), multiparious cows, week +6",53.7 lbs/day
same,Dry Matter Feed Intake,"Pre/Post Trial #1 (150/125/100 g/day in wk −3..−1/+1..+4/+5..+8), multiparious cows, week +6, two-trial comparison with Control Trial #2 (Table 22)",54.1 lbs/day
same,Dry Matter Intake,"Pre/Post Trial #1 (150/125/100 g/day in wk −3..−1/+1..+4/+5..+8), multiparious cows, week +7",54.5 lbs/day
